According to patent US7230139B2, “Diterpenoid compounds, compositions thereof and their use as anti-cancer or anti-fungal agents” (priority 2004, dated 2007):

Assays:
[1] = Body weight of SW480 tumor-bearing mice; type: in vivo, CB17 SCID/SCID female mice; conditions: i.v. once daily for five days; 10 mg/kg (50, 50a, 50b), 50 mg/kg (74a)
Experimental: SW480 cells were transplanted subcutaneously into the flank of female CB 17 SCID/SCID mice. Each mouse was inoculated with a suspension of 1×10^6 tumor cells per 100 μL on day zero. The following five treatment groups of ten mice each were used: (a) a negative control group treated with intravenous (i.v.) injection of vehicle, (b) a group treated with i.v. injection of a Compound 50, (c) a group treated with i.v. injection of a Compound 50a, (d) a group treated with i.v. injection of Compound 50b, (e) a group treated with i.v. injection of Compound 74a.
Treatment started on day twelve after SW480 cells transplantation and Compounds 50, 50a, 50b and 74a were administered i.v. once daily for five consecutive days at a dose of 10, 10, 10 and 50 mg/kg, respectively. Compound 50, 50a and 50b were prepared as a working solution of 1.5 mg/mL in a vehicle solution of 20% Cremaphor EL (Sigma, St. Louis, Miss., USA), and 10% Ethanol. Compound 74a was prepared as a working solution of 5 mg/mL in a vehicle solution of 5% Dextrose (Abbot Laboratories, QC, Canada). The negative control groups were treated with vehicle solution of 20% Cremaphor EL and 10% Ethanol alone.
The mice were weighed and the tumors measured on day 12 and every 2 to 3 days after treatment commenced. Observations continued for 23 days after initial tumor implantation. The changes in body weight and in the calculated tumor volume were plotted (FIGS. 9 and 10). Statistical analysis was performed using GraphPad Prism (GraphPad Software Inc., San Diego, Calif.). Two-way ANOVA was used to determine how the treatment affected tumor growth over time. Following the two-way ANOVA, post-tests were performed using the Benferroni method to determine the statistical difference between the mean tumor-size of the two groups being compared on every day that the tumors were measured.

[2] = test system: Candida albicans strain ATCC 10231; assay: Fungus growth inhibition (OD600); type: cell-based; conditions: dilution series, YEP glucose, 30° C.; dose-dependent
Experimental: (§1) Fungus cells were first cultured overnight in 10 mL of YEP glucose-containing medium at 30° C. The following day, 5 μL of the overnight culture (5–6×10^3 cells) was added to 100 μL of YEP glucose-containing medium in a 96-well microtitre plate. To these cultures a dilution series of Compound 50 was added. Compound 50 was prepared as a stock solution in 100% dimethyl sulfoxide (DMSO) at a concentration of 10 mM. Serial dilutions were prepared in distilled water. The final DMSO concentration in each well was 0.5%. Fungus cells were grown at 30° C. and cell growth was monitored by reading the OD600 (optical density at 600 nm) with a Tecan Ultra plate reader (TECAN U.S. Inc. Research Triangle Park, N.C., USA). […] Accordingly, Compound 50, an illustrative Diterpenoid Compound, is useful for inhibiting the growth of a fungus or treating a fungal infection.

[3] = test system: Saccharomyces cerevisiae strain W303a; assay: Yeast growth inhibition (OD600); type: cell-based; conditions: dilution series, YEP with glucose, galactose or glycerol, 30° C.; dose-dependent
Experimental: as §1, with “Yeast cells were” for “Fungus cells were”, “of YEP media supplemented with 2% of one of the three carbon sources mentioned above in a” for “of YEP glucose-containing medium in a”, “was 0.5%. Yeast cells were” for “was 0.5%. Fungus cells were”, “a Tecan ULTRA plate reader” for “a Tecan Ultra plate reader”, “(TECAN U.S. Inc., Research Triangle” for “(TECAN U.S. Inc. Research Triangle”

## COc1ccc2c(c1)C1(C)C=CC(=O)C(C)(C)C1=C(O)C2=O (racemic) [Compound 50]
[1]
  Change in body weight: non-significant change in body weight
[2]
  Growth of Candida albicans: significantly inhibited growth
[3]
  Growth of Saccharomyces cerevisiae: significantly inhibited growth
